Converted amounts (≈) assume the structure as drawn. Where two headings read alike, the source gives them in different places.
Experiments:
[1] = test system: Streptococcus pyogenes EMCC1772; assay: Agar well diffusion assay; type: cell-based
[2] = target: SARS-CoV2 RBD / ACE2 protein complex (Severe acute respiratory syndrome coronavirus 2, UniProt P0DTC2); assay: Spike protein RBD-ACE2 complex formation ELISA; type: binding
ACE2 protein = ACE2 protein (Homo sapiens, UniProt Q9BYF1); assay: ACE2 binding
ACE2 protein, sequence (Q9BYF1 18-805): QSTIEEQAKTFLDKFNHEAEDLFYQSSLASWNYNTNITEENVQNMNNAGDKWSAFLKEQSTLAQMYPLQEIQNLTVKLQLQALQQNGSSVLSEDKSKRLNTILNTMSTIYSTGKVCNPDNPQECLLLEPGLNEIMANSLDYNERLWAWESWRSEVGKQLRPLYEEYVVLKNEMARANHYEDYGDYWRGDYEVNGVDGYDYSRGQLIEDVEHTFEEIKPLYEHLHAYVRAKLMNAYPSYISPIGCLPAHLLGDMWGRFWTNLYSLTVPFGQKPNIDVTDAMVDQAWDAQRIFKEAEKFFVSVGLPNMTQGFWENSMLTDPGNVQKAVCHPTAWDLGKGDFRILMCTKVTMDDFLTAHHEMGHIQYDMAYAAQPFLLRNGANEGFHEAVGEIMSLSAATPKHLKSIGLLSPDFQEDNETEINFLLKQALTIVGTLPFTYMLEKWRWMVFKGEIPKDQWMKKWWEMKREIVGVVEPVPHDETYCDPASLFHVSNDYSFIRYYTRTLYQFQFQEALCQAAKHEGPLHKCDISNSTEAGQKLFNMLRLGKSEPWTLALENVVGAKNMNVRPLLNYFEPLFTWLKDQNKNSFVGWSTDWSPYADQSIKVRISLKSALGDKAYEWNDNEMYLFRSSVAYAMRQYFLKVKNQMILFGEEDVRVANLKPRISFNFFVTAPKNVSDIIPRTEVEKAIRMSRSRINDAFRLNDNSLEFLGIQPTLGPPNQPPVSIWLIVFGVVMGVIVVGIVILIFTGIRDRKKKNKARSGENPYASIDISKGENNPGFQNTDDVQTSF

white blood cells (WBC) = assay: Elimination of HCQ toxicity: HCQ induced WBC cytotoxicity; type: cell-based; conditions: HCQ 200 µg/ml
human red blood cells = assay: Red blood cells toxicity; type: cell-based; conditions: Erythrocyte, 1 h, read-out: RBC IC50 (µg/ml)
[3] = test system: Streptococcus pyogenes EMCC1772; assay: Turbidity assay; type: cell-based
BetaCoV RdRp gene = type: cell-based, SARS-CoV2
red blood cells = assay: Elimination of HCQ toxicity: HCQ induced RBC hemolysis; conditions: HCQ 27.5 µg/ml
[4] = test system: klebsila pneumonia ATCC700603; assay: Turbidity assay; type: cell-based
SARS-CoV2 = assay: microbe, parasite or virus in culture; type: cell-based; conditions: for EC50: Severe acute respiratory syndrome coronavirus 2, Vero C1008
SARS-CoV2 ORF gene = type: cell-based
[5] = test system: Staphylococcus aureus ATCC25923; assay: Agar well diffusion assay; type: cell-based
[6] = test system: klebsila pneumonia ATCC700603; assay: Agar well diffusion assay; type: cell-based
BetaCoV E-gene = type: cell-based, SARS-CoV2
Candida albicans EMCC105 [7] = assay: Agar well diffusion assay; type: cell-based
[8] = test system: Staphylococcus aureus ATCC25923; assay: Turbidity assay; type: cell-based
[9] = test system: Peripheral blood mononuclear cells (PBMC); assay: Peripheral blood mononuclear cells toxicity; type: cell-based; conditions: Homo sapiens, 24 h, read-out: PBMC IC50 (µg/ml)
[10] = In vivo HCQ toxicity elimination: CBC profile and blood chemistry; conditions: mice, oral
Candida albicans EMCC105 [11] = assay: Turbidity assay; type: cell-based
[12] = target: papain-like proteinase (PLpro) (Severe acute respiratory syndrome coronavirus 2, UniProt P0DTD1); assay: Papain-like proteinase; type: biochemical, SARS-CoV2; conditions: read-out: PLpro (Inhibition %)
Antioxidant activity = conditions: DPPH, 30 min in the dark
[13] = ref Zou et al. [2020], cited from earlier work

For COc1ccc2cc3[n+](cc2c1OC)CCc1cc2c(cc1-3)OCO2 [BER, Berberine chloride hydrate], the MIC [1] was 463 µg/mL, the “Spike protein- RBD- complex formation (Fold change)” value ([2]; 62.5 µg/ml) was 03.88 ± 0.08 Fold change and the “Spike protein- RBD- complex formation (Fold change)” value ([2]; 126 µg/ml) was 08.00 ± 0.10 Fold change. For the same molecule, the “Spike protein- RBD- complex formation (Fold change)” value ([2]; 252 µg/ml) was 08.50 ± 0.00 Fold change, the “Spike protein- RBD- complex formation (Fold change)” value ([2]; 504 µg/ml) was 16.13 ± 0.20 Fold change and the “Spike protein- RBD- complex formation (Fold change)” value ([2]; 1008 µg/ml) was 16.13 ± 0.03 Fold change. For the same molecule, the “ACE2 (Binding %)” value (ACE2 protein; 62.5 µg/ml) was 13.10 ± 0.07%, the “ACE2 (Binding %)” value (ACE2 protein; 126 µg/ml) was 13.10 ± 0.90% and the “ACE2 (Binding %)” value (ACE2 protein; 252 µg/ml) was 13.90 ± 1.10%. The “ACE2 (Binding %)” value (ACE2 protein; 504 µg/ml) was 15.60 ± 1.60%, the “ACE2 (Binding %)” value (ACE2 protein; 1008 µg/ml) was 15.60 ± 1.10% and the “prevention of HCQ cytotoxic effect towards WBC” value (white blood cells (WBC)) was about 6.7 folds. The IC50 (human red blood cells) was 1349 ± 10.3 µg/mL, the MIC [3] was 463 µg/mL and the “RdRp down regulation (%)” value (BetaCoV RdRp gene; 2.5 µg/ml) was 76.67 ± 2.9%. For the same molecule, the RdRp expression (BetaCoV RdRp gene; 2.5 µg/ml) was 0.233 ± 0.001, the “RdRp down regulation (%)” value (BetaCoV RdRp gene; 5 µg/ml) was 79.26 ± 3.5% and the RdRp expression (BetaCoV RdRp gene; 5 µg/ml) was 0.207 ± 0.002. For the same molecule, the “RdRp down regulation (%)” value (BetaCoV RdRp gene; 10 µg/ml) was 94.95 ± 6.9%, the RdRp expression (BetaCoV RdRp gene; 10 µg/ml) was 0.050 ± 0.0003 and the “RdRp down regulation (%)” value (BetaCoV RdRp gene; 20 µg/ml) was 99.89 ± 3.8%. The RdRp expression (BetaCoV RdRp gene; 20 µg/ml) was 0.001 ± 0.00009, the “decrease of the hemolytic activity induced by HCQ” value (red blood cells) was 42.85% and the MIC [4] was 463 µg/mL. The “Vero E6 reduction (%)” value (SARS-CoV2) was 80.00 ± 1.7%, the EC50 (SARS-CoV2) was 16.7 ± 0.01 µg/mL and the EC50/IC50% (SARS-CoV2; antiviral EC50 relative to Vero E6 IC50) was 32.9 ± 0.4%. The “ORF gene down regulation (%)” value (SARS-CoV2 ORF gene; 2.5 µg/ml) was 11.73 ± 0.1%, the ORF gene expression (SARS-CoV2 ORF gene; 2.5 µg/ml) was 0.88 ± 0.001 and the “ORF gene down regulation (%)” value (SARS-CoV2 ORF gene; 5 µg/ml) was 21.54 ± 0.2%. The ORF gene expression (SARS-CoV2 ORF gene; 5 µg/ml) was 0.79 ± 0.003, the “ORF gene down regulation (%)” value (SARS-CoV2 ORF gene; 10 µg/ml) was 60.22 ± 0.8% and the ORF gene expression (SARS-CoV2 ORF gene; 10 µg/ml) was 0.39 ± 0.002. The “ORF gene down regulation (%)” value (SARS-CoV2 ORF gene; 20 µg/ml) was 86.69 ± 0.1%, the ORF gene expression (SARS-CoV2 ORF gene; 20 µg/ml) was 0.13 ± 0.008 and the MIC [5] was 926 µg/mL. The MIC [6] was 1850 µg/mL, the “E-gene down regulation (%)” value (BetaCoV E-gene; 2.5 µg/ml) was 89.77 ± 3.5% and the E-gene expression (BetaCoV E-gene; 2.5 µg/ml) was 0.102 ± 0.0003. The “E-gene down regulation (%)” value (BetaCoV E-gene; 5 µg/ml) was 99.30 ± 1.8%, the E-gene expression (BetaCoV E-gene; 5 µg/ml) was 0.007 ± 0.0005 and the “E-gene down regulation (%)” value (BetaCoV E-gene; 10 µg/ml) was 99.70 ± 4.5%. The E-gene expression (BetaCoV E-gene; 10 µg/ml) was 0.003 ± 0.0001, the “E-gene down regulation (%)” value (BetaCoV E-gene; 20 µg/ml) was 99.98 ± 3.9% and the E-gene expression (BetaCoV E-gene; 20 µg/ml) was 0.0002 ± 0.00001. It also gave an MIC (Candida albicans EMCC105 [7]) of 1850 µg/mL, an MIC [8] of 463 µg/mL and an IC50 [9] of 22.2 ± 0.9 µg/mL. The “prevention of HCQ adverse effect on co-administration with HCQ” value ([10]; blood chemistry) was “moderately prevented”, the “effect on normal CBC parameters” value ([10]; p < 0.05) was “did not affect normal CBC parameters” and the MIC (Candida albicans EMCC105 [11]) was 463 µg/mL. It also gave an inhibition at 62.5 µg/mL [12] of 49.8 ± 0.19%, an inhibition at 126 µg/mL [12] of 65.89 ± 0.17% and an inhibition at 252 µg/mL [12] of 78.93 ± 0.36%. For the same molecule, the inhibition at 504 µg/mL [12] was 84.8 ± 0.12% and the inhibition at 1008 µg/mL [12] was 93.26 ± 0.73%.
In the case of CCN(CCO)CCCC(C)Nc1ccnc2cc(Cl)ccc12 (stereo not drawn) [HCQ, hydroxychloroquine], the “ACE2 (Binding %)” value (ACE2 protein; 12.5 µg/ml) is reported as 09.02 ± 0.50%, the “ACE2 (Binding %)” value (ACE2 protein; 200 µg/ml) is reported as 15.60 ± 1.40% and the IC50 (human red blood cells) is reported as 52 ± 0.9 µg/mL (≈ 155 µM). For the same molecule, the EC50/IC50% (SARS-CoV2) was 27.5 ± 0.9%, the “Vero E6 reduction (%)” value (SARS-CoV2) was 76.00 ± 1.8% and the EC50 (SARS-CoV2) was 0.39 ± 0.009 µg/mL (≈ 1.16 µM). For the same molecule, the “Antioxidants IC50” value (Antioxidant activity) was 362.7 ± 6.7 µg/mL, the “oral dose reaching the blood” value ([13]; oral) was “about 50%” and the “accumulation in brain and spinal cord tissue, times higher than plasma level” value [13] was 30 times. The “accumulation in the liver and lung, times higher than plasma concentration” value [13] was 700 times, the IC50 [9] was 3.2 ± 0.3 µg/mL (≈ 9.53 µM) and the inhibition at 12.5 µg/mL [12] was 8.1 ± 0.74%. The inhibition at 25 µg/mL [12] was 11.2 ± 0.39%, the inhibition at 50 µg/mL [12] was 22.5 ± 0.15% and the inhibition at 100 µg/mL [12] was 30 ± 0.23%. The inhibition at 200 µg/mL [12] was 37 ± 0.42%.

Source: article PMC8419391 (Journal of Pharmaceutical Investigation, 2021)
